Data on 26 compounds can be found in patent US11098032B2, “Pyran dervatives as CYP11A1 (cytochrome P450 monooxygenase 11A1) inhibitors” (ORION CORPORATION, priority 2016, dated 2021).

This assay deals with T1, CYP11A1 (Homo sapiens, UniProt P05108).
T1 construct: human H295R adrenocortical carcinoma cell line was used as source of enzyme; endogenous in cells; host or cells: H295R human adrenocortical carcinoma cells
T1 sequence (P05108 40-521): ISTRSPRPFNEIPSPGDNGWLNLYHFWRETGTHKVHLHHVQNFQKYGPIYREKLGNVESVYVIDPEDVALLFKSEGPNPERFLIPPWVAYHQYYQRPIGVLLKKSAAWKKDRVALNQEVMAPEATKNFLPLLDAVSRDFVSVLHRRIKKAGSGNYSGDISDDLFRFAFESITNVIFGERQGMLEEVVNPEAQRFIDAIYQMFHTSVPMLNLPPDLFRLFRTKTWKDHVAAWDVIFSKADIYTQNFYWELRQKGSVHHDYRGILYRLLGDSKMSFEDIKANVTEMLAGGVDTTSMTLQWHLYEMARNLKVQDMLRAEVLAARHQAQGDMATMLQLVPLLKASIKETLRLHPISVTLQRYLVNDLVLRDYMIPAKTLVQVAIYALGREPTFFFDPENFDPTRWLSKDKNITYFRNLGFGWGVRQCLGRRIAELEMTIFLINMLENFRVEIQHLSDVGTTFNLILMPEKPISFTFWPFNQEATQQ
Description: CYP11A1 inhibition: modified isocaproic acid release assay (IARA) in H295R cells. Type of assay: cell-based. As to conditions: human H295R adrenocortical carcinoma cells treated three days, 3 nM [24,25-3H]-labelled cholesterol, 1% DMSO, 10 concentrations in duplicates; read-out: IC50 of the test compounds on CYP11A1 inhibition. The procedure:
The ability of the test compounds to inhibit conversion of cholesterole to pregnenolone and isocaproic acid was measured by modification of isocaproic acid release assay (IARA) described by Ruangwises et. al. (Biology of Reproduction 1991; 45(1):143-50) except that human H295R adrenocortical carcinoma cell line was used as source of enzyme and extraction was done with dextran-coated charcoal suspension (Isomaa, V. et al., Endocrinology 1982; 111(3):833-843). […] To determine the half maximal inhibitory concentration (IC50) of the test compounds on CYP11A1 inhibition, the cells were treated for three days with increasing concentrations of the test compounds in the presence of 3 nM [24,25-3H]-labelled cholesterol (American Radiolabelled Chemicals). The final DMSO concentration was 1%. Cell culture medium was extracted with dextran-coated charcoal suspension and the radiolabelled isocaproic acid was determined by mixing 100 μl of supernatant fraction in 200 μl of scintillation fluid (OptiPhase SuperMix, Perkin Elmer). Radioactivity was measured using a Microbeta scintillation counter (1450 MicroBeta Trilux, Wallac). All the test compounds were studied at 10 concentrations in duplicates.
`N#Cc1ccc(COc2coc(CN3CCc4ccccc4C3)cc2=O)cc1Cl` [Compound 118, 2-Chloro-4-(((6-((3,4-dihydroisoquinolin-2(1H)-yl)methyl)-4-oxo-4H-pyran-3-yl)oxy)methyl)benzonitrile]: the IC50 – broadly, the point on the concentration scale where inhibition reaches its midpoint – lay in the range of 301 to 2000 nM.
The figure for `O=c1cc(CN2Cc3ccccc3C2)occ1OCc1ccc(S(=O)(=O)N2CCOCC2)cc1` [Compound 6, 2-(Isoindolin-2-ylmethyl)-5-((4-(morpholinosulfonyl)benzyl)oxy)-4H-pyran-4-one] is 150 to 300 nM; for `Cc1ccc(S(=O)(=O)N=S(C)(=O)C2CCC(COc3coc(CN4Cc5ccccc5C4)cc3=O)CC2)cc1` (centres unmarked) [Compound 239, N-{[4-({[6-(1,3-Dihydro-2H-isoindol-2-ylmethyl)-4-oxo-4H-pyran-3-yl]oxy}-methyl)cyclohexyl](methyl)oxido-λ^6-sulfanylidene}-4-methylbenzenesulfonamide] it is 150 to 300 nM; for `CS(=O)(=O)N1CCC(COc2coc(CN3Cc4ccc(Cl)cc4C3)cc2=O)CC1` [Compound 241, 2-((5-Chloroisoindolin-2-yl)methyl)-5-((1-(methylsulfonyl)piperidin-4-yl)-methoxy)-4H-pyran-4-one] it is 150 to 300 nM.
The figure for `COCCS(=O)(=O)c1ccc(COc2coc(CN3Cc4ccccc4C3)cc2=O)cc1` [Compound 28, 2-(Isoindolin-2-ylmethyl)-5-((4-((2-methoxyethyl)sulfonyl)benzyl)oxy)-4H-pyran-4-one] is 150 to 300 nM.
Take `COCCS(=O)(=O)c1ccc(COc2coc(CN3Cc4ccc(F)cc4C3)cc2=O)cc1` [Compound 29, 2-((5-Fluoroisoindolin-2-yl)methyl)-5-((4-((2-methoxyethyl)sulfonyl)benzyl)oxy)-4H-pyran-4-one]: the IC50 lay in the range of 150 to 300 nM.
With `CS(=N)c1ccc(COc2coc(CN3Cc4ccccc4C3)cc2=O)cc1` (centres unmarked) [Compound 85, 2-(Isoindolin-2-ylmethyl)-5-((4-(S-methylsulfinimidoyl)benzyl)oxy)-4H-pyran-4-one] the figure was 150 to 300 nM; with `COc1ccc2c(c1)CN(Cc1cc(=O)c(OCc3ccc(C(=O)N4CC(F)(F)C4)cc3)co1)C2` [Compound 162, 5-((4-(3,3-Difluoroazetidine-1-carbonyl)benzyl)oxy)-2-((5-methoxyisoindolin-2-yl)methyl)-4H-pyran-4-one], below 150 nM.
The figure for `CS(=O)(=O)C1CCC(COc2coc(CN3Cc4ccccc4C3)cc2=O)CC1` (centres unmarked) [Compound 220, 2-(Isoindolin-2-ylmethyl)-5-((4-(methylsulfonyl)cyclohexyl)methoxy)-4H-pyran-4-one] is 150 to 300 nM; for `CS(=O)(=O)N1CCC(CCCOc2coc(CN3Cc4ccccc4C3)cc2=O)CC1` [Compound 213, 2-(Isoindolin-2-ylmethyl)-5-(3-(1-(methylsulfonyl)piperidin-4-yl)propoxy)-4H-pyran-4-one] it is below 150 nM; for `O=C(N1CCC(COc2coc(CN3Cc4ccccc4C3)cc2=O)CC1)C(F)(F)F` [Compound 273, 2-(Isoindolin-2-ylmethyl)-5-((1-(2,2,2-trifluoroacetyl)piperidin-4-yl)methoxy)-4H-pyran-4-one] it is 150 to 300 nM.
On to `O=c1cc(CN2Cc3ccccc3C2)occ1OCc1ccc(S(=O)(=O)C2COC2)cc1` [Compound 233, 2-(Isoindolin-2-ylmethyl)-5-((4-(oxetan-3-ylsulfonyl)benzyl)oxy)-4H-pyran-4-one], for which the half-inhibitory concentration (IC50) lay within 150 to 300 nM.
The figure for `CS(=O)(=O)c1ccc(COc2coc(CN3Cc4ccc(Cl)cc4C3)cc2=O)cc1` [Compound 64, 2-((5-Chloroisoindolin-2-yl)methyl)-5-((4-(methylsulfonyl)benzyl)oxy)-4H-pyran-4-one] is 150 to 300 nM; for `COc1ccc2c(c1)CCN(Cc1cc(=O)c(OCc3ccc(C(C)(C)O)cc3)co1)C2` [Compound 52, 5-((4-(2-Hydroxypropan-2-yl)benzyl)oxy)-2-((6-methoxy-3,4-dihydroisoquinolin-2(1H)-yl)methyl)-4H-pyran-4-one] it is 301 to 2000 nM; for `COc1ccc2c(c1)CN(Cc1cc(=O)c(OCc3ccc(C(=O)N(C)C)cc3)co1)C2` [Compound 138, 4-(((6-((5-Methoxyisoindolin-2-yl)methyl)-4-oxo-4H-pyran-3-yl)oxy)methyl)-N,N-dimethylbenzamide] it is below 150 nM.
With `CS(=O)(=O)c1ccc(COc2coc(CN3Cc4cc5c(cc4C3)OCO5)cc2=O)cc1` [Compound 66, 2-((5,7-Dihydro-6H-[1,3]dioxolo[4,5-f]isoindol-6-yl)methyl)-5-((4-(methyl-sulfonyl)benzyl)oxy)-4H-pyran-4-one] the figure was 301 to 2000 nM; with `CC(C)N(C(=O)c1ccc(COc2coc(CN3Cc4ccccc4C3)cc2=O)cc1)C(C)C` [Compound 134], below 150 nM; with `O=c1cc(CN2Cc3ccc(C(F)(F)F)cc3C2)occ1OCC1CCN(S(=O)(=O)C2COC2)CC1` [Compound 69a, 5-((1-(Oxetan-3-ylsulfonyl)piperidin-4-yl)methoxy)-2-((5-(trifluoromethyl)-isoindolin-2-yl)methyl)-4H-pyran-4-one], below 150 nM.
With `CC(C)NC(=O)N1CCC(COc2coc(CN3Cc4ccccc4C3)cc2=O)CC1` [Compound 229, 4-(((6-(Isoindolin-2-ylmethyl)-4-oxo-4H-pyran-3-yl)oxy)methyl)-N-isopropyl-piperidine-1-carboxamide] the figure was below 150 nM; with `O=c1cc(CN2Cc3ccccc3C2)occ1OCc1ccc([N+](=O)[O-])cc1` [Compound 38, 2-(Isoindolin-2-ylmethyl)-5-((4-nitrobenzyl)oxy)-4H-pyran-4-one], 301 to 2000 nM.
Consider `CS(=N)(=O)c1ccc(COc2coc(CN3CCc4ccccc4C3)cc2=O)cc1` (centres unmarked) [Compound 87, 2-((3,4-Dihydroisoquinolin-2(1H)-yl)methyl)-5-((4-(S-methylsulfonimidoyl)-benzyl)oxy)-4H-pyran-4-one], for which the IC50 is 301 to 2000 nM.
With `O=C(c1ccco1)N1CCC(COc2coc(CN3Cc4ccccc4C3)cc2=O)CC1` [Compound 260, 5-((1-(Furan-2-carbonyl)piperidin-4-yl)methoxy)-2-(isoindolin-2-ylmethyl)-4H-pyran-4-one], the IC50 lay in the range of 150 to 300 nM.
With `CC(C)(CO)NC(=O)c1ccc(COc2coc(CN3Cc4ccccc4C3)cc2=O)cc1` [Compound 283, N-(1-hydroxy-2-methylpropan-2-yl)-4-(((6-(isoindolin-2-ylmethyl)-4-oxo-4H-pyran-3-yl)oxy)methyl)benzamide] the figure was 150 to 300 nM; with `Cc1ccc2c(c1)CN(Cc1cc(=O)c(OCC3CCN(S(C)(=O)=O)CC3)co1)C2` [Compound 211, 2-((5-Methylisoindolin-2-yl)methyl)-5-((1-(methylsulfonyl)piperidin-4-yl)-methoxy)-4H-pyran-4-one], below 150 nM; with `CCS(=N)(=O)c1ccc(COc2coc(CN3Cc4ccc(F)cc4C3)cc2=O)cc1` (centres unmarked) [Compound 102, 5-((4-(Ethylsulfonimidoyl)benzyl)oxy)-2-((5-fluoroisoindolin-2-yl)methyl)-4H-pyran-4-one], 150 to 300 nM.
The figure for `CCN=S(C)(=O)c1ccc(COc2coc(CN3Cc4ccccc4C3)cc2=O)cc1` (centres unmarked) [Compound 97, 5-((4-(N-Ethyl-S-methylsulfonimidoyl)benzyl)oxy)-2-(isoindolin-2-ylmethyl)-4H-pyran-4-one] is 150 to 300 nM.
